Test results published in US20080280886A1, “SUBSTITUTED UREAS” (AUSPEX PHARMACEUTICALS, INC., priority 2007, published 2008).

Tests used:
[1] = In vitro liver microsomal stability assay; format: in vitro ADME; conditions: 1 mg per mL liver microsome protein, NADPH-generating system, 5 microgram per mL compound, 37° C., 0-60 min, LC/MS/MS
Description: Liver microsomal stability assays are conducted at 1 mg per mL liver microsome protein with an NADPH-generating system in 2% NaHCO3 (2.2 mM NADPH, 25.6 mM glucose 6-phosphate, 6 units per mL glucose 6-phosphate dehydrogenase and 3.3 mM MgCl2). Test compounds are prepared as solutions in 20% acetonitrile-water and added to the assay mixture (final assay concentration 5 microgram per mL) and incubated at 37° C. Final concentration of acetonitrile in the assay should be <1%. Aliquots (50 μL) are taken out at times 0, 15, 30, 45, and 60 min, and diluted with ice cold acetonitrile (200 μL) to stop the reactions. Samples are centrifuged at 12,000 RPM for 10 min to precipitate proteins. Supernatants are transferred to microcentrifuge tubes and stored for LC/MS/MS analysis of the degradation half-life of the test compounds.

[2] = tested on: hyperactivity induced by NMDA receptor antagonist MK-801; conditions: Vanover et al. 2006; cited from earlier work
[3] = tested on: DOI-induced head twitches; conditions: rodent; Vanover et al. 2006; cited from earlier work
dopamine release = conditions: Li et al. 2005; cited from earlier work

Compound | increase in degradation half-life as compared to the non-isotopically enriched drug (Pimavanserin) [1] [%] | hyperactivity induced by MK-801 (dozocilpine) [2] | DOI-induced head twitches [3] | dopamine release when combined with haloperidol (dopamine release)
[2H]C([2H])(NC(=O)N(C1CCN(C([2H])([2H])[2H])CC1)C([2H])([2H])c1ccc(F)cc1)c1ccc(OC([2H])([2H])C(C)C)cc1 [Example 3, d9-1-(4-Fluorobenzyl)-3-(4-isobutoxybenzyl)-1-(1-methylpiperidin-4-yl)urea hemi-tartrate] | 17 |  |  | 
CC(C)COc1ccc(CNC(=O)N(Cc2ccc(F)cc2)C2CCN(C)CC2)cc1 [Pimavanserin, 1-(4-fluoro-benzyl)-3-(4-isobutoxy-benzyl)-1-(1-methyl-piperidin-4-yl)-urea] |  | attenuate hyperactivity | reduce | potentiate dopamine release
